Legend:
[1] = Inhibition of HIF-1 (unknown origin) expressed in MH7A cells cotransfected with HRE and renilla luciferase assessed as reduction in luminescence signal preincubated for 1 hr under normoxic condition followed by 24 hrs incubation under hypoxic condition by dual luciferase reporter assay; conditions: Homo sapiens
[2] = Cytotoxicity against human MH7A cells

Compound | IC50 [1] [µM] | CC50 [2] [µM]
COc1ccccc1-c1ccc(C(=O)NCCc2ccccc2F)nc1 | 4.57 | > 50
O=c1c2ccc(-c3cccc(O)c3)cc2ccn1CCc1ccccc1 | 7.39 | > 50
O=c1c2ccc(-c3ccc(F)cc3)cc2ccn1CCc1ccccc1 | 6.21 | > 50
COc1ccccc1-c1ccc2c(=O)n(Cc3ccccc3F)ccc2c1 | 6.73 | > 50
COc1ccc(-c2ccc3c(=O)n(CCc4ccccc4)ccc3c2)cc1 | 2.18 | > 50
COc1ccc(-c2ccc3c(=O)n(Cc4ccccc4F)ccc3c2)cc1 | 3.54 | > 50
O=c1c2ccc(-c3ccoc3)cc2ccn1Cc1ccccc1F | 1.46 | > 50
O=c1c2ccc(-c3ccccc3O)cc2ccn1CCc1ccccc1 | 0.91 | > 50
O=c1c2ccc(-c3ccoc3)cc2ccn1Cc1ccccc1 | 5.92 | > 50
O=c1c2ccc(-c3ccc(O)cc3)cc2ccn1CCc1ccccc1 | 0.82 | > 50
COc1ccccc1-c1ccc2c(=O)n(CCc3ccccc3)ccc2c1 | 3.31 | > 50

Reference: ChEMBL document CHEMBL5500368, “Discovery of novel diaryl substituted isoquinolin-1(2H)-one derivatives as hypoxia-inducible factor-1 signaling inhibitors for the treatment of rheumatoid arthritis” (Eur J Med Chem, 2024)
